This passage reports IC50 results from ChEMBL document CHEMBL1157761, “Cytotoxic nor-chamigrane and chamigrane endoperoxides from a basidiomycetous fungus” (J Nat Prod, 2010).

In assay [1] the test system is BT-474. Briefly: Cytotoxicity against human BT474 cells by MTT assay. The format is functional, cell-based. (In general: Tetrazolium dyes change colour on reduction, which living cells bring about.)
Assay [2] concerns SW-620. Briefly: Cytotoxicity against human SW620 cells by MTT assay. The format is functional, cell-based.

Values after ≈ are worked out from the molar mass of the structure shown.

Take `CC1(C)CCC(=O)[C@@]2(C)OO[C@@H]3C[C@@]12CC[C@H]3O` [MERULIN A]: the figures for the IC50 in assay [1] and in assay [2] were 4.98 µg/mL (≈ 19.6 µM) and 4.84 µg/mL (≈ 19 µM), respectively.

As for `CC1(C)CCC(=O)[C@H]2OO[C@@H]3C[C@]21CC[C@@]3(O)CO` [MERULINS B], the half-inhibitory concentration (IC50) in assay [1] and in assay [2] was greater than 10 µg/mL each time.

In the case of `CC1(C)CCC(=O)[C@H]2OO[C@@H]3C[C@@]21CC[C@]3(O)CO` [MERULINS C], the IC50 (commonly the concentration that inhibits the measured activity by half) was 1.57 µg/mL (≈ 5.81 µM) in assay [1] and 4.11 µg/mL (≈ 15.2 µM) in assay [2].
